Source: USH1923H, “Herbicidal (oxaalkyl) phenyl-substituted heterocycles” (FMC Corporation, priority 1998, dated 2000)

What was measured:
corn [1] = experiment: preemergence herbicidal activity on corn; format: in vivo, Zea mays var. Pioneer 3732; settings: Zea mays, pre-emergence, 0.3 Kg/Ha, after 12-17 days, read-out: PREEMERGENCE HERBICIDAL ACTIVITY (% CONTROL) CRN
Description: (§1) The (oxaalkyl)phenyl-substituted heterocycles of this invention were tested for pre- and postemergence herbicidal activity using a variety of crops and weeds. The test plants included soybean (Glycine max var. Winchester),field corn (Zea mays var. Pioneer 3732), wheat (Triticum aestivum var. Lew), morningglory (Ipomea lacunosa or Ipomea hederacea), […] (Abutilon theophrasti), green foxtail (Setaria viridis), Johnsongrass (Sorghum halepense), blackgrass (Aloepecurus myosuroides), common chickweed (Stellaria media), and common cocklebur (Xanthium strumarium L.).
(§2) For preemergence testing, two disposable fiber flats (8 cm×15 cm×25 cm) for each rate of application of each candidate herbicide were filled to an approximate depth of 6.5 cm with steam-sterilized sandy loam soil. The soil was leveled and impressed with a template to provide five evenly spaced furrows 13 cm long and 0.5 cm deep in each flat. Seeds of soybean, wheat, corn, green foxtail, and johnsongrass were planted in the furrows of the first flat, and seeds of velvetleaf, morningglory, common chickweed, cocklebur, and blackgrass were planted in the furrows of the second flat. The five-row template was employed to firmly press the seeds into place. A topping soil of equal portions of sand and sandy loam soil was placed uniformly on top of each flat to a depth of approximately 0.5 cm. Flats for postemergence testing were prepared in the same manner except that they were planted 9-14 days prior to the preemergence flats and were placed in a greenhouse and watered, thus allowing the seeds to germinate and the foliage to develop.
(§3) In both pre- and postemergence tests, a stock solution of the candidate herbicide was prepared by dissolving 0.27 g of the compound in 20 mL of water/acetone (50/50) containing 0.5% v/v sorbitan monolaurate. For an application rate of 3000 g/ha of herbicide a 10 mL portion of the stock solution was diluted with water/acetone (50/50) to 45 mL.
(§4) The preemergence flats were initially subjected to a light water spray. The four flats were placed two by two along a conveyor belt (i.e., the two preemergence followed by the two postemergence flats). The conveyor belt fed under a spray nozzle mounted about ten inches above the postemergent foliage. The preemergent flats were elevated on the belt so that the soil surface was at the same level below the spray nozzle as the foliage canopy of the postemergent plants. The spray of herbicidal solution was commenced and once stabilized, the flats were passed under the spray at a speed to receive a coverage equivalent of 1000 L/ha. At this coverage the application rates are those shown in the above table for the individual herbicidal solutions. The preemergence flats were watered immediately thereafter, placed in the greenhouse and watered regularly at the soil surface. The postemergence flats were immediately placed in the green-house and not watered until 24 hours after treatment with the test solution. Thereafter they were regularly watered at ground level. After 12-17 days the plants were examined and the phytotoxicity data were recorded.
(§5) Phytotoxicity data were taken as percent control. Percent control was by a method similar to the 0 to 1 00 rating system disclosed in "Research Methods in Weed Science," 2nd ed., B. Truelove, Ed.; Southern Weed Science Society; Auburn University, Auburn, Ala., 1977.

blackgrass [2] = experiment: preemergence herbicidal activity on blackgrass; format: in vivo, Aloepecurus myosuroides; settings: Alopecurus myosuroides, pre-emergence, 0.3 Kg/Ha, after 12-17 days, read-out: PREEMERGENCE HERBICIDAL ACTIVITY (% CONTROL) ALOMY
Description: as §1, §2, §3, §4, §5

wheat [3] = experiment: postemergence herbicidal activity on wheat; format: in vivo, Triticum aestivum var. Lew; settings: Triticum aestivum, post-emergence, 0.3 Kg/Ha, after 12-17 days, read-out: POSTEMERGENCE HERBICIDAL ACTIVITY (% CONTROL) WHT
Description: as §1, §2, §3, §4, §5

johnsongrass [4] = experiment: postemergence herbicidal activity on johnsongrass; format: in vivo; settings: Sorghum halepense, post-emergence, 0.3 Kg/Ha, after 12-17 days, read-out: POSTEMERGENCE HERBICIDAL ACTIVITY (% CONTROL) SORHA
Description: as §1, §2, §3, §4, §5

velvetleaf [5] = experiment: postemergence herbicidal activity on velvetleaf; format: in vivo; settings: Abutilon theophrasti, post-emergence, 0.3 Kg/Ha, after 12-17 days, read-out: POSTEMERGENCE HERBICIDAL ACTIVITY (% CONTROL) ABUTH
Description: as §1, §2, §3, §4, §5

velvetleaf [6] = experiment: preemergence herbicidal activity on velvetleaf; format: in vivo; settings: Abutilon theophrasti, pre-emergence, 0.3 Kg/Ha, after 12-17 days, read-out: PREEMERGENCE HERBICIDAL ACTIVITY (% CONTROL) ABUTH
Description: as §1, §2, §3, §4, §5

soybean [7] = experiment: preemergence herbicidal activity on soybean; format: in vivo, Glycine max var. Winchester; settings: Glycine max, pre-emergence, 0.3 Kg/Ha, after 12-17 days, read-out: PREEMERGENCE HERBICIDAL ACTIVITY (% CONTROL) SOY
Description: as §1, §2, §3, §4, §5

morningglory [8] = experiment: preemergence herbicidal activity on morningglory; format: in vivo, Ipomea lacunosa or Ipomea hederacea; settings: Ipomoea, pre-emergence, 0.3 Kg/Ha, after 12-17 days, read-out: PREEMERGENCE HERBICIDAL ACTIVITY (% CONTROL) IPOSS
Description: as §1, §2, §3, §4, §5

chickweed [9] = experiment: preemergence herbicidal activity on chickweed; format: in vivo; settings: Stellaria media, pre-emergence, 0.3 Kg/Ha, after 12-17 days, read-out: PREEMERGENCE HERBICIDAL ACTIVITY (% CONTROL) STEME
Description: as §1, §2, §3, §4, §5

chickweed [10] = experiment: postemergence herbicidal activity on chickweed; format: in vivo; settings: Stellaria media, post-emergence, 0.3 Kg/Ha, after 12-17 days, read-out: POSTEMERGENCE HERBICIDAL ACTIVITY (% CONTROL) STEME
Description: as §1, §2, §3, §4, §5

johnsongrass [11] = experiment: preemergence herbicidal activity on johnsongrass; format: in vivo; settings: Sorghum halepense, pre-emergence, 0.3 Kg/Ha, after 12-17 days, read-out: PREEMERGENCE HERBICIDAL ACTIVITY (% CONTROL) SORHA
Description: as §1, §2, §3, §4, §5

wheat [12] = experiment: preemergence herbicidal activity on wheat; format: in vivo, Triticum aestivum var. Lew; settings: Triticum aestivum, pre-emergence, 0.3 Kg/Ha, after 12-17 days, read-out: PREEMERGENCE HERBICIDAL ACTIVITY (% CONTROL) WHT
Description: as §1, §2, §3, §4, §5

blackgrass [13] = experiment: postemergence herbicidal activity on blackgrass; format: in vivo, Aloepecurus myosuroides; settings: Alopecurus myosuroides, post-emergence, 0.3 Kg/Ha, after 12-17 days, read-out: POSTEMERGENCE HERBICIDAL ACTIVITY (% CONTROL) ALOMY
Description: as §1, §2, §3, §4, §5

morningglory [14] = experiment: postemergence herbicidal activity on morningglory; format: in vivo, Ipomea lacunosa or Ipomea hederacea; settings: Ipomoea, post-emergence, 0.3 Kg/Ha, after 12-17 days, read-out: POSTEMERGENCE HERBICIDAL ACTIVITY (% CONTROL) IPOSS
Description: as §1, §2, §3, §4, §5

corn [15] = experiment: postemergence herbicidal activity on corn; format: in vivo, Zea mays var. Pioneer 3732; settings: Zea mays, post-emergence, 0.3 Kg/Ha, after 12-17 days, read-out: POSTEMERGENCE HERBICIDAL ACTIVITY (% CONTROL) CRN
Description: as §1, §2, §3, §4, §5

green foxtail [16] = experiment: preemergence herbicidal activity on green foxtail; format: in vivo; settings: Setaria viridis, pre-emergence, 0.3 Kg/Ha, after 12-17 days, read-out: PREEMERGENCE HERBICIDAL ACTIVITY (% CONTROL) SETVI
Description: as §1, §2, §3, §4, §5

cocklebur = experiment: postemergence herbicidal activity on cocklebur; format: in vivo, Xanthium strumarium L.; settings: Xanthium strumarium, post-emergence, 0.3 Kg/Ha, after 12-17 days, read-out: POSTEMERGENCE HERBICIDAL ACTIVITY (% CONTROL) XANPE
Description: as §1, §2, §3, §4, §5

green foxtail [17] = experiment: postemergence herbicidal activity on green foxtail; format: in vivo; settings: Setaria viridis, post-emergence, 0.3 Kg/Ha, after 12-17 days, read-out: POSTEMERGENCE HERBICIDAL ACTIVITY (% CONTROL) SETVI
Description: as §1, §2, §3, §4, §5

soybean [18] = experiment: postemergence herbicidal activity on soybean; format: in vivo, Glycine max var. Winchester; settings: Glycine max, post-emergence, 0.3 Kg/Ha, after 12-17 days, read-out: POSTEMERGENCE HERBICIDAL ACTIVITY (% CONTROL) SOY
Description: as §1, §2, §3, §4, §5

| SMILES | activity at 300 g/ha (corn [1]) [%] | activity at 300 g/ha (blackgrass [2]) [%] | activity at 300 g/ha (wheat [3]) [%] | activity at 300 g/ha (johnsongrass [4]) [%] | activity at 300 g/ha (velvetleaf [5]) [%] | activity at 300 g/ha (velvetleaf [6]) [%] | activity at 300 g/ha (soybean [7]) [%] | activity at 300 g/ha (morningglory [8]) [%] | activity at 300 g/ha (chickweed [9]) [%] | activity at 300 g/ha (chickweed [10]) [%] | activity at 300 g/ha (johnsongrass [11]) [%] | activity at 300 g/ha (wheat [12]) [%] | activity at 300 g/ha (blackgrass [13]) [%] | activity at 300 g/ha (morningglory [14]) [%] | activity at 300 g/ha (corn [15]) [%] | activity at 300 g/ha (green foxtail [16]) [%] | activity at 300 g/ha (cocklebur) [%] | activity at 300 g/ha (green foxtail [17]) [%] | activity at 300 g/ha (soybean [18]) [%] |
| --- | --- | --- | --- | --- | --- | --- | --- | --- | --- | --- | --- | --- | --- | --- | --- | --- | --- | --- | --- |
| Cc1nn(-c2cc(CC(Cl)COC(=O)NC(C)C)c(Cl)cc2F)c(=O)n1C(F)F (stereo not drawn) [Compound 34] | 70 | 60 | 50 | 95 | 100 | 100 | 80 | 100 | 100 | 75 | 100 | 50 | 65 | 90 | 85 | 100 | 100 | 100 | 90 |
| Cc1nn(-c2cc(CC(Cl)COC(=O)NC3CCCCC3)c(Cl)cc2F)c(=O)n1C(F)F (stereo not drawn) [Compound 35] | 10 | 30 | 25 | 60 | 100 | 100 | 30 | 90 | 100 | 30 | 50 | 20 | 30 | 80 | 70 | 100 | 100 | 80 | 80 |
| CCCCCCNC(=O)OCC(Cl)Cc1cc(-n2nc(C)n(C(F)F)c2=O)c(F)cc1Cl (stereo not drawn) [Compound 36] | 30 | 50 | 30 | 75 | 100 | 100 | 70 | 100 | 60 | 100 | 70 | 30 | 50 | 100 | 80 | 100 | 100 | 80 | 80 |
